{"source": "patent US6905852B1", "about": "“Herbicide-resistant protoporphyrinogen oxidase isolated from Nicotiana tabacum” (Nihon Nohyaku Co., Ltd., priority 1997, dated 2005)", "assay_type_in_all_cases": "cell-based, Nicotiana tabacum", "key": {"tobacco callus [1]": {"system": "tobacco callus", "experiment": "Sensitivity of tobacco callus to compound H (survival)", "method": "Tobacco (Nicotiana tabacum CV. Xanthi NC) was grown to 40 cm tall in a green house. And a leaf was cut, and the leaf was cut to square-shape of 5 cm width by a knife, then immersed in 70% ethanol for 30 seconds and in an aqueous solution of sodium hypochlorite (the effective concentration of chlorine was 1%) for 15 minutes to conduct surface-sterilization. After washing it for three times by sterilized water and removal of epidermis, the leaf fragment was suspended in 0.6M manitol (pH 5.8) containing an enzyme solution (1% cellulase onozuka R-10 and 0.05% macerozyme R-10 (manufactured by Yakult Co., Ltd.)) at 26° C. for three hours. After the enzyme treatment, protoplasts were washed with centrifugation by Murasige-Skoog (MS) medium for three times, and the obtained protoplast was suspended into MS solid medium containing 0.6% agar and 1 ppm of NAA and BA, to make a cell number of 10^8/ml, and pored into a dish at 1 cm thick. The protoplast was cultured at 27° C. under darkness to regenerate a callus. Four weeks after the incubation, the agar medium containing a callus grown up to about 1 mm large, was cut to rectangular shape having 1 cm width, and put on MS solid medium containing various concentration of the compound H (4-chloro-3-[2,4-dichloro-5(2-propenyloxy)phenyl]-5-difluoromethoxy-1-methyl-1H-pyrazole, described in Toku Kai Hei 3-163063), and the sensitivity of tobacco callus to photobleaching herbicide was examined. As shoen in Table 1, it become apparent that the callus completely dies at 10 nM."}, "ETR-056 line": {"system": "ETR-056 line", "experiment": "Accumulation of protoporphyrin IX in callus", "details": "1,200 nM compound H", "method": "(§1) The present inventors have tried to analyze the resistant mechanism in the resistant strain tolerant to photobleaching herbicide. It has been reported that in a plant treated by photobleaching herbicide, protoporphyrin IX is accumulated, the present inventors tried to measure the accumulation of protoporphyrin IX periodically. A resistant callus which has been subcultured in MS liquid medium containing 1,200 nM of compound H under light condition was cultured for 24 hours in a dark condition, then transplanted into MS liquid medium containing 1,200 nM of compound H, and after 6, 12, 18, 24, 32 and 48 hours later, the callus was collected, and protoporphyrin IX was measured. The extraction and assay of the protoporphyrin 1× from the callus were conducted as follows (Matringe, M. et al. (1989) Biochem, J. 260:231-235.). That is, 500 mg (wet weight) of the callus was homogenized in a mortar, and extracted with 7.5 ml of acetone: 1N NH4OH (9:1). The extract was centrifuged at 3,000×g for 10 minutes, then the supernatant was collected. To the supernatant 2.5 ml of hexane was added and mixed sufficiently, then, the lower layer was recovered. Further, after washing with hexane two twice, the amount of protoporphyrin IX obtained in the lower layer was measured from the value of Ex 405 nm-Em 631.5 nm by a fluorescence spectrophotometer. All the extraction procedures were conducted under the safety light."}, "ETR-253": {"system": "ETR-253", "experiment": "Accumulation of protoporphyrin IX in callus", "details": "1,200 nM compound H", "method": "as §1"}, "ETR-245": {"system": "ETR-245", "experiment": "Accumulation of protoporphyrin IX in callus", "details": "1,200 nM compound H", "method": "as §1"}, "sensitive cell line": {"system": "sensitive cell line", "experiment": "Accumulation of protoporphyrin IX in callus", "details": "1,200 nM compound H"}, "tobacco callus [2]": {"system": "tobacco callus", "experiment": "Selection course of callus lines tolerant to the photobleaching herbicide", "method": "Using a medium containing the compound H containing two times concentration (20 nM) of the concentration at which tobacco callus completely dies, the selection of tobacco callus tolerant to photobleaching herbicide has been started. 1×10^5 of tobacco callus have been selected (Table 2), in the course of re-generation from 1×10^10 of the protoplast.\nnumber of protoplast given: 1×10^10"}}}
{"compound": "C=CCOc1cc(-c2nn(C)c(OC(F)F)c2Cl)c(Cl)cc1Cl", "note": "[compound H, 4-chloro-3-[2,4-dichloro-5(2-propenyloxy)phenyl]-5-difluoromethoxy-1-methyl-1H-pyrazole]", "values": [{"measurement": "Survival Rate (%)", "setting": "tobacco callus [1]; 2.5 nM", "value": 30, "unit": "%"}, {"measurement": "Survival Rate (%)", "setting": "tobacco callus [1]; 5 nM", "value": 10, "unit": "%"}, {"measurement": "Survival Rate (%)", "setting": "tobacco callus [1]; 8 nM (last line of the table)", "value": 0, "unit": "%"}, {"measurement": "Survival Rate (%)", "setting": "tobacco callus [1]; 10 nM", "value": 0, "unit": "%"}, {"measurement": "Survival Rate (%)", "setting": "tobacco callus [1]; 20 nM", "value": 0, "unit": "%"}, {"measurement": "Survival Rate (%)", "setting": "tobacco callus [1]; 40 nM", "value": 0, "unit": "%"}, {"measurement": "concentration at which the callus completely dies", "setting": "tobacco callus [1]; tobacco callus on MS solid medium", "value": 10, "unit": "nM"}, {"measurement": "amount of protoporphyrin IX", "setting": "ETR-056 line; 24 hours", "value": 1.7, "unit": "μg/g fresh weight"}, {"measurement": "amount of protoporphyrin IX", "setting": "ETR-056 line; 48 hours", "value": 4.6, "unit": "μg/g fresh weight"}, {"measurement": "accumulation of protoporphyrin IX", "setting": "ETR-253", "value": "little accumulation"}, {"measurement": "accumulation of protoporphyrin IX", "setting": "ETR-245", "value": "little accumulation"}, {"measurement": "amount of protoporphyrin IX", "setting": "sensitive cell line; 24 hours", "value": 1.3, "unit": "μg/g fresh weight"}, {"measurement": "amount of protoporphyrin IX", "setting": "sensitive cell line; 48 hours", "value": 1.9, "unit": "μg/g fresh weight"}, {"measurement": "Number of resistant cell lines", "setting": "tobacco callus [2]; 20 nM, protoplast given 1×10^10", "value": "100,000"}, {"measurement": "Number of resistant cell lines", "setting": "tobacco callus [2]; 30 nM", "value": "50,000"}, {"measurement": "Number of resistant cell lines", "setting": "tobacco callus [2]; 50 nM", "value": "40,000"}, {"measurement": "Number of resistant cell lines", "setting": "tobacco callus [2]; 75 nM", "value": "7,200"}, {"measurement": "Number of resistant cell lines", "setting": "tobacco callus [2]; 150 nM", "value": 254}, {"measurement": "Number of resistant cell lines", "setting": "tobacco callus [2]; 300 nM", "value": 120}, {"measurement": "Number of resistant cell lines", "setting": "tobacco callus [2]; 600 nM", "value": 66}, {"measurement": "Number of resistant cell lines", "setting": "tobacco callus [2]; 1200 nM", "value": 46}, {"measurement": "Number of resistant cell lines", "setting": "tobacco callus [2]; 2,400 nM", "value": 36}, {"measurement": "Number of resistant cell lines", "setting": "tobacco callus [2]; 5,000 nM", "value": 0}]}
